The text below walks through data of patent US20100081679A1, “DIAMINOPYRIMIDINES AS FUNGICIDES” (Bayer CropScience AG, priority 2007, published 2010).

Marks after values point to notes of the source that are not given here.

The nature of one data set: logP determination via retention times, calibrated with unbranched alkan-2-ones. The class given is physicochemical. The conditions noted are these: HPLC on reversed-phase C18, method *: 40° C., 0.1% aqueous formic acid and acetonitrile, linear gradient 10% to 95% acetonitrile.
As for `Oc1ccc(Nc2ncc(Cl)c(NC3CC3)n2)cc1F` [compound 105], the logP was 1.25*.
In the case of `CCCCC(=O)Oc1ccc(Nc2ncc(Cl)c(NC3CC3)n2)cc1` [compound 106], the logP is 3.68*.
As to `FC(F)C(F)(F)Oc1ccc(Nc2ncc(Cl)c(NC3CC3)n2)cc1` [compound 108], the logP is reported as 2.65*.
`CC(C)C1COC(=O)N1c1ccc(Nc2ncc(Cl)c(NC3CC3)n2)cc1` (stereo not drawn) [compound 109]: the logP is on record as 2.79*.
Regarding `CC(C)C(=O)Nc1ccc(Nc2ncc(Cl)c(NC3CC3)n2)cc1` [compound 111], the logP is on record as 1.43*.
As for `Cc1cc(O)ccc1Nc1ncc(Br)c(NC2CC2)n1` [compound 112], the logP is 1.21*.
For `CC(=O)Nc1cc(Nc2ncc(Br)c(NC3CC3)n2)ccc1C` [compound 113], the logP was 1.35*.
As for `Oc1ccc(Nc2ncc(Br)c(NC3CC3)n2)cc1` [compound 114], the logP was 1.17*.
Consider `Cc1cc(Nc2ncc(Br)c(NC3CC3)n2)ccc1O` [compound 116], for which the logP is 1.35*.
Regarding `Brc1cnc(Nc2ccc(OCCN3CCCCC3)cc2)nc1NC1CC1` [compound 117], the logP was 1.07*.
For the molecule `CC1COC(=O)N1c1ccc(Nc2ncc(Br)c(NCC3CC3)n2)cc1` (stereo not drawn) [compound 118], the logP is listed as 1.72*.
Still for that read-out and setting: to `CSc1cccc(Nc2ncc(Cl)c(NCC3CC3)n2)c1` [compound 119] belongs 2.27*; to `O=C(N(c1ccc(Nc2ncc(Cl)c(NC3CC3)n2)cc1)C1CC1)C(F)(F)F` [compound 120], 2.54*.
Consider `CSc1cccc(Nc2ncc(Br)c(NC3CC3)n2)c1` [compound 121], for which the logP is reported as 2.44*.
As for `CC(C)(C)Sc1ccc(Nc2ncc(Cl)c(NC3CC3)n2)cc1` [compound 152], the logP is on record as 3.73*.
As for `COC(=O)Nc1ccc(Nc2ncc(Cl)c(NCC3CC3)n2)cc1` [compound 153], the logP is reported as 1.44*.
Regarding `O=C1CCCN1c1ccc(Nc2ncc(Cl)c(NCC3CC3)n2)cc1` [compound 154], the logP is given as 1.5*.
Still for that read-out and setting: to `O=C1C=CC(=O)N1c1ccc(Nc2ncc(Cl)c(NC3CC3)n2)cc1` [compound 156] belongs 1.58*; to `N#Cc1cnc(Nc2ccc(N3CCCC3=O)cc2)nc1NC1CC1` [compound 157], 1.89*.
For `CC(=O)N(C)c1ccc(Nc2ncc(C#N)c(NC3CC3)n2)cc1` [compound 158], the logP is on record as 1.69*.
In the case of `COC(=O)Nc1ccc(Nc2ncc(C#N)c(NC3CC3)n2)cc1` [compound 159], the logP is given as 1.91*.
As for `O=C1OCCN1c1ccc(Nc2ncc(Cl)c(NCC3CC3)n2)cc1` [compound 160], the logP was 1.39*.
As to `C#CCS(=O)(=O)c1ccc(Nc2ncc(Cl)c(NC3CC3)n2)cc1` [compound 161], the logP is listed as 2.21*.
Same read-out and setting: to `CC(C)(C)OC(=O)NCc1ccc(Nc2ncc(Cl)c(NCC3CC3)n2)cc1` [compound 162] belongs 2.21*; to `CC(Nc1nc(Nc2ccccc2)ncc1Cl)C1CC1` (stereo not drawn) [compound 166], 2.14*; to `CC(Nc1nc(Nc2ccc(F)cc2)ncc1Cl)C1CC1` (stereo not drawn) [compound 167], 2.27*.
On the same count and under the same terms, to `COC(=O)Nc1ccc(Nc2ncc(Cl)c(NC(C)C3CC3)n2)cc1` (stereo not drawn) [compound 168] belongs 1.64*; to `O=C1OCCN1c1ccc(Nc2ncc(Br)c(NC3CC3)n2)cc1` [compound 175], 1.37*.

The same data set, now with this note: HPLC on reversed-phase C18 column (EEC Directive 79/831 Annex V.A8); method *: 40° C.; 0.1% aqueous formic acid and acetonitrile; linear gradient 10% to 95% acetonitrile.
Turning to `O=C1NC(=O)C(c2ccc(Nc3ncc(Cl)c(NC4CC4)n3)cc2)N1` (stereo not drawn) [compound 176], the logP is listed as 0.61*.
The same measure, in the same setting: in the case of `Cc1cc(O)ccc1Nc1ncc(Cl)c(NC2CC2)n1` [compound 177] it was 1.09*.
Take `CN1C(=O)COc2cc(Nc3ncc(Cl)c(NC4CC4)n3)ccc21` [compound 179]: the logP was 1.47*.
Same read-out and setting: in the case of `Cc1cc(Nc2ncc(Cl)c(NC3CC3)n2)ccc1O` [compound 180] it was 1.09*.
Still for that read-out and setting: in the case of `O=C1CCCc2ccc(Nc3ncc(Cl)c(NC4CC4)n3)cc2N1` [compound 181] it was 1.41*; in that of `FC(F)C(F)(F)Oc1cccc(Nc2ncc(Cl)c(NC3CC3)n2)c1` [compound 182], 3.03*; in that of `CCOc1ccc(Nc2ncc(Cl)c(NC3CC3)n2)cc1` [compound 183], 1.76*.
In the case of `FC(F)(F)Nc1cccc(Nc2ncc(Cl)c(NC3CC3)n2)c1` [compound 184], the logP was 3.55*.
With `Clc1cnc(Nc2ccc(NC3CC3)nc2)nc1NC1CC1` [compound 186], the logP is given as 0.92*.
With `Oc1ccc(Nc2ncc(Cl)c(NC3CC3)n2)cc1C1CCCC1` [compound 187], the logP was 1.86*.
Same read-out and setting: to `COCC(C)Oc1ccc(Nc2ncc(Cl)c(NC3CC3)n2)cc1` (stereo not drawn) [compound 188] belongs 1.73*.
As to `Brc1cnc(Nc2ccccc2)nc1NCC1CC1` [compound 189], the logP is given as 1.93*.
As to `COc1cc(Nc2ncc(Br)c(NCC3CC3)n2)cc(OC)c1OC` [compound 190], the logP is 1.88*.
The same measure, in the same setting: to `COc1ccc(Nc2ncc(Br)c(NCC3CC3)n2)cn1` [compound 191] belongs 1.63*.
On to `CN(C)S(=O)(=O)c1cccc(Nc2ncc(Br)c(NCC3CC3)n2)c1` [compound 192], for which the logP is reported as 2.48*.
Consider `COC(=O)Nc1cccc(Nc2ncc(Cl)c(NC3CC3)n2)c1` [compound 193], for which the logP was 1.44*.
Consider `CC(C)Oc1cccc(Nc2ncc(Cl)c(NC3CC3)n2)c1` [compound 195], for which the logP is 2.45*.
As to `COC(=O)c1cccc(Nc2ncc(Cl)c(NC3CC3)n2)c1` [compound 196], the logP was 1.9*.
Same read-out and setting: to `Clc1cnc(Nc2cccc(-c3cccs3)c2)nc1NC1CC1` [compound 197] belongs 2.9*.
`COc1cccc(Nc2ncc(C(F)(F)F)c(NCC3CC3)n2)c1` [compound 199]: the logP is 2.91*.
For `CS(=O)(=O)c1ccc(Nc2ncc(C(F)(F)F)c(NCC3CC3)n2)cc1` [compound 200], the logP is given as 2.63*.
Turning to `CC(C)(C)C(=O)Nc1ccc(Nc2ncc(C(F)(F)F)c(NCC3CC3)n2)cc1` [compound 201], the logP is 2.6*.
In the case of `CC(=O)N(C)c1ccc(Nc2ncc(C(F)(F)F)c(NCC3CC3)n2)cc1` [compound 202], the logP is on record as 2.13*.
Still for that read-out and setting: to `O=C(Nc1ccc(Nc2ncc(C(F)(F)F)c(NCC3CC3)n2)cc1)C(F)(F)F` [compound 203] belongs 2.84*; to `CC(=O)Nc1cccc(Nc2ncc(C(F)(F)F)c(NCC3CC3)n2)c1` [compound 204], 1.9*; to `CC(C)(C)C(=O)Nc1cccc(Nc2ncc(C(F)(F)F)c(NCC3CC3)n2)c1` [compound 205], 2.77*.
Regarding `CN(C)C(=O)c1ccc(Nc2ncc(C(F)(F)F)c(NCC3CC3)n2)cc1` [compound 206], the logP is on record as 2.13*.
`CC(C)(C)NC(=O)c1ccc(Nc2ncc(C(F)(F)F)c(NCC3CC3)n2)cc1` [compound 207]: the logP is given as 3.07*.
As for `CSc1cccc(Nc2ncc(C(F)(F)F)c(NCC3CC3)n2)c1` [compound 208], the logP is given as 3.41*.
Still for that read-out and setting: in the case of `O=S(=O)(c1cccc(Nc2ncc(C(F)(F)F)c(NCC3CC3)n2)c1)N1CCCCC1` [compound 209] it was 3.81*; in that of `CC(C)(C)C(=O)Cc1ccc(Nc2ncc(C(F)(F)F)c(NCC3CC3)n2)cc1` [compound 210], 3.41*.
As to `CC(=O)c1cccc(Nc2ncc(C(F)(F)F)c(NCC3CC3)n2)c1` [compound 211], the logP is reported as 2.77*.
For `COc1cc(Nc2ncc(C(F)(F)F)c(NCC3CC3)n2)cc(OC)c1OC` [compound 217], the logP is on record as 2.57*.
`CS(=O)(=O)Nc1cccc(Nc2ncc(Cl)c(NC3CC3)n2)c1` [compound 242]: the logP is recorded as 1.47*.
With `CS(=O)(=O)Cc1cccc(Nc2ncc(Cl)c(NC3CC3)n2)c1` [compound 243], the logP is recorded as 1.46*.
On to `CN(C)S(=O)(=O)Oc1cccc(Nc2ncc(Cl)c(NC3CC3)n2)c1` [compound 244], for which the logP is 2.26*.
In the case of `O=S1(=O)Cc2ccc(Nc3ncc(Cl)c(NC4CC4)n3)cc2C1` [compound 245], the logP was 1.51*.
For `O=S(=O)(c1cccc(Nc2ncc(Cl)c(NC3CC3)n2)c1)N1CCCCC1` [compound 246], the logP was 2.8*.
For `CCOC(=O)Cc1ccc(Nc2ncc(Cl)c(NC3CC3)n2)cc1` [compound 247], the logP is reported as 1.99*.

Staying with this data set, now noted: method **: HPLC reversed-phase C 18, 43° C., 0.1% aqueous phosphoric acid and acetonitrile, linear gradient 10% to 95% acetonitrile.
For the molecule `NS(=O)(=O)c1ccc(Nc2ncc(F)c(NC3CC3)n2)cc1` [compound 46], the logP is reported as 0.95**.
As to `CN(C)S(=O)(=O)c1cccc(Nc2ncc(Cl)c(NCC3CC3)n2)c1` [compound 49], the logP is 2.18**.

The data set is the same for the next values; noted with them: method *: HPLC reversed-phase C18, 40° C., 0.1% aqueous formic acid and acetonitrile, linear gradient 10% to 95% acetonitrile.
`COc1cc(Nc2ncc(C)c(NC3CC3)n2)cc(OC)c1OC` [compound 52]: the logP is given as 1.47*.
Consider `Cc1cnc(Nc2cccc(Cl)c2)nc1NC1CC1` [compound 57], for which the logP is listed as 1.8*.
On to `N#CCS(=O)(=O)c1ccc(Nc2ncc(Cl)c(NC3CC3)n2)cc1` [compound 62], for which the logP was 2.2*.
On the same count and under the same terms, in the case of `O=C1OCCN1c1ccc(Nc2ncc(Cl)c(NC3CC3)n2)cc1` [compound 83] it was 1.39*.
On the same count and under the same terms, to `O=S(=O)(c1ccc(Nc2ncc(Cl)c(NC3CC3)n2)cc1)N1CCOCC1` [compound 85] belongs 2.68*; to `N#Cc1cnc(Nc2ccccc2)nc1NCC1CC1` [compound 87], 2.77*; to `CC(C)(C)OC(=O)NCc1ccc(Nc2ncc(Cl)c(NC3CC3)n2)cc1` [compound 90], 2.15*.
For `COc1ccc(Nc2ncc(Cl)c(NC3CC3)n2)cn1` [compound 92], the logP was 1.34*.
The same measure, in the same setting: in the case of `FC(F)Sc1ccc(Nc2ncc(Cl)c(NC3CC3)n2)cc1` [compound 94] it was 2.77*.
